Biological target: T1, Tyrosinase
T1 construct: gene PPO3
Assay: L-DOPA oxidation, […] nm
Format: biochemical
Details: substrate L-DOPA 5 mM stock; 50 mM phosphate pH 6.5; 37 °C; 10 min preincubation

Dermatoprotective: 242.99 ± 2.67 µg/mL
Structure (SMILES): O=c1c(O)c(-c2ccc(O)c(O)c2)oc2cc(O)cc(O)c12 [Quercetin]

— publication PMC12589732, “Chemical composition and biological effects of Lavandula angustifolia Mill., essential oils” (AMB Express, 2025)
